Reference: ChEMBL document CHEMBL1201862, “PubChem BioAssay data set” (2004)
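Where inhibition never reached the appropriate level, the endpoint shown equals the highest concentration tested. Otherwise, values were interpolated linearly from a five-concentration, 48-hour dose response in 96-well plates. GI50: concentration for 50% inhibition of growth.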 Activity calls are given as the source filed them. No stated cut-off is given here; in the data, active = GI50 up to about 1.1 µM and inactive = higher.

Columns and labels:
Assay in all cases: growth of human tumour cells (NCI), 48 h
SF-295 = system: SF-295
Hs-578T = system: Hs-578T
MOLT-4 = system: MOLT-4
MDA-MB-231 = system: MDA-MB-231
MCF7 = system: MCF7
SNB-75 = system: SNB-75
SF-539 = system: SF-539
CAKI-1 = system: CAKI-1
OVCAR-5 = system: OVCAR-5
SNB-19 = system: SNB-19
OVCAR-8 = system: OVCAR-8
786-0 = system: 786-0
UO-31 = system: UO-31
HCT-15 = system: HCT-15
K562 = system: K562
DU-145 = system: DU-145
KM12 = system: KM12
SF-268 = system: SF-268
HOP-62 = system: HOP-62
SW-620 = system: SW-620
HCT-116 = system: HCT-116
SK-MEL-5 = system: SK-MEL-5
COLO 205 = system: COLO 205
HCC 2998 = system: HCC 2998
T47D = system: T47D
MDA-N = system: MDA-N
U-251 = system: U-251
NCI-H23 = system: NCI-H23
NCI/ADR-RES = system: NCI/ADR-RES
UACC-62 = system: UACC-62
IGROV-1 = system: IGROV-1
SR = system: SR
TK-10 = system: TK-10
SK-MEL-28 = system: SK-MEL-28
UACC-257 = system: UACC-257
OVCAR-4 = system: OVCAR-4
HT-29 = system: HT-29
RXF 393 = system: RXF 393
EKVX = system: EKVX
A549 = system: A549
SK-OV-3 = system: SK-OV-3
OVCAR-3 = system: OVCAR-3
SK-MEL-2 = system: SK-MEL-2
MDA-MB-435 = system: MDA-MB-435
LOX IMVI = system: LOX IMVI
NCI-H226 = system: NCI-H226
CCRF-CEM = system: CCRF-CEM
Malme-3M = system: Malme-3M
PC-3 = system: PC-3
M14 = system: M14
ACHN = system: ACHN
RPMI-8226 = system: RPMI-8226
HOP-92 = system: HOP-92
NCI-H460 = system: NCI-H460
SN12C = system: SN12C
HL-60 = system: HL-60

Compound: CC1(C)NC(C)(C)/C(=N\O)C(=NO)/C1=N/O
- GI50 (SF-295): > 100 µM (inactive)
- GI50 (Hs-578T): > 100 µM (inactive)
- GI50 (MOLT-4): > 100 µM (inactive)
- GI50 (MDA-MB-231): > 100 µM (inactive)
- GI50 (MCF7): > 100 µM (inactive)
- GI50 (SNB-75): > 100 µM (inactive)
- GI50 (SF-539): > 100 µM (inactive)
- GI50 (CAKI-1): > 100 µM (inactive)
- GI50 (OVCAR-5): > 100 µM (inactive)
- GI50 (SNB-19): > 100 µM (inactive)
- GI50 (OVCAR-8): > 100 µM (inactive)
- GI50 (786-0): > 100 µM (inactive)
- GI50 (UO-31): > 100 µM (inactive)
- GI50 (HCT-15): > 100 µM
- GI50 (K562): > 100 µM (inactive)
- GI50 (DU-145): > 100 µM (inactive)
- GI50 (KM12): > 100 µM (inactive)
- GI50 (SF-268): > 100 µM (inactive)
- GI50 (HOP-62): > 100 µM (inactive)
- GI50 (SW-620): > 100 µM (inactive)
- GI50 (HCT-116): > 100 µM (inactive)
- GI50 (SK-MEL-5): > 100 µM (inactive)
- GI50 (COLO 205): > 100 µM (inactive)
- GI50 (HCC 2998): > 100 µM (inactive)
- GI50 (T47D): > 100 µM (inactive)
- GI50 (MDA-N): > 100 µM (inactive)
- GI50 (U-251): > 100 µM (inactive)
- GI50 (NCI-H23): > 100 µM (inactive)
- GI50 (NCI/ADR-RES): > 100 µM (inactive)
- GI50 (UACC-62): > 100 µM (inactive)
- GI50 (IGROV-1): > 100 µM (inactive)
- GI50 (SR): > 100 µM (inactive)
- GI50 (TK-10): > 100 µM (inactive)
- GI50 (SK-MEL-28): > 100 µM (inactive)
- GI50 (UACC-257): > 100 µM (inactive)
- GI50 (OVCAR-4): > 100 µM (inactive)
- GI50 (HT-29): > 100 µM (inactive)
- GI50 (RXF 393): > 100 µM (inactive)
- GI50 (EKVX): > 100 µM (inactive)
- GI50 (A549): > 100 µM (inactive)
- GI50 (SK-OV-3): > 100 µM (inactive)
- GI50 (OVCAR-3): > 100 µM (inactive)
- GI50 (SK-MEL-2): > 100 µM (inactive)
- GI50 (MDA-MB-435): > 100 µM (inactive)
- GI50 (LOX IMVI): > 100 µM (inactive)
- GI50 (NCI-H226): > 100 µM (inactive)
- GI50 (CCRF-CEM): > 100 µM (inactive)
- GI50 (Malme-3M): > 100 µM (inactive)
- GI50 (PC-3): > 100 µM (inactive)
- GI50 (M14): > 100 µM (inactive)
- GI50 (ACHN): > 100 µM (inactive)
- GI50 (RPMI-8226): > 100 µM (inactive)
- GI50 (HOP-92): > 100 µM (inactive)
- GI50 (NCI-H460): > 100 µM (inactive)
- GI50 (SN12C): > 100 µM (inactive)
- GI50 (HL-60): > 100 µM (inactive)
